Eight compounds from ChEMBL document CHEMBL3045533, “Synthesis and cytotoxicity of 1-phenylethanolamine carboxamide derivatives: effects on the cell cycle” (Med Chem Res, 2010) can be followed below.

One assay concerns U-937. The experiment in a line: Cytotoxicity against Homo sapiens (human) U937 cells. Format: functional, cell-based.
For another assay, the system named is B16. The experiment in a line: Cytotoxicity against Mus musculus (mouse) B16 cells after 72 hr by MTT assay. Particulars: B16, 72 h. Format: functional, cell-based.
Assay [1] has as its system L1210. Kind of assay: Cytotoxicity against Mus musculus (mouse) L1210 cells after 72 hr by MTT assay. Format: functional, cell-based. As to conditions: L1210, 72 h.
The test system of assay [2] is L1210. Kind of assay: Induction of apoptosis in Mus musculus (mouse) L1210 cells assessed as cell death at 500 uM after 3 hr by PI/annexin V-staining based flow cytometric analysis (reference value: 5.3%). Format: functional.
Assay [3] deals with L1210. The experiment in a line: Induction of apoptosis in Mus musculus (mouse) L1210 cells assessed as apoptotic cells at 500 uM after 3 hr by PI/annexin V-staining based flow cytometric analysis (reference value: 30%). Format: functional.
Assay [4] relates to L1210. The experiment in a line: Induction of apoptosis in Mus musculus (mouse) L1210 cells at 500 uM after 3 hr by PI-staining based flow cytometric analysis. Format: functional, cell-based.
The test system of assay [5] is L1210. The experiment in a line: Induction of apoptosis in Mus musculus (mouse) L1210 cells assessed as viable cells at 500 uM after 3 hr by PI/annexin V-staining based flow cytometric analysis (reference value: 32%). It counts as functional. As to conditions: L1210, 3 h, read-out: Activity.

Converted amounts (≈) assume the structure as drawn. The source made the active and inactive calls. The calls are words filed in the database; no cut-off is given here. Where only a bound is given, the exact number is not on record here.

`COc1cc(/C=C/C(=O)NC[C@@H](O)c2ccc(O)cc2)ccc1O`: the half-maximal inhibitory concentration (IC50) in the assay with U-937 was determined as 44 µg/mL (≈ 134 µM).
Regarding `Nc1ccc(C(O)CNC(=O)/C=C/c2ccc([N+](=O)[O-])cc2)cc1` (centres undefined), the IC50 in the assay with B16 is 53 µM; in the assay on L1210 [1], 64 µM.
Take `COc1cccc(/C=C/C(=O)NCC(O)c2ccccc2)c1` (centres undefined): the values for the IC50 in the assay with B16 and with L1210 [1] were more than 100 µM and 64 µM, respectively.
As to `COc1ccc2[nH]c(C(=O)NCC(O)c3ccc(N)cc3)cc2c1` (centres undefined), the concentration for half-maximal inhibition (IC50) in the assay on B16 was 87 µM; with L1210 [1], 50 µM. The Activity is recorded as 7% in the assay on L1210 [2] and 41% in the assay with L1210 [3]. Further, the outcome in the assay on L1210 [4] was Active. Further, the viability at 500 µM in the assay with L1210 [5] is 48%.
Regarding `O=C(/C=C/c1ccc([N+](=O)[O-])cc1)NCC(O)c1ccccc1` (centres undefined), the IC50 with B16 and in the assay with L1210 [1] was more than 100 µM each time.
`COc1ccc(/C=C/C(=O)NCC(O)c2ccc(N)cc2)cc1` (centres undefined): the figures for the concentration for half-maximal inhibition (IC50) with B16 and in the assay with L1210 [1] were 93 µM and more than 100 µM, respectively.
On to `COc1ccc(/C=C/C(=O)NCC(O)c2ccccc2)cc1` (centres undefined), for which the IC50 in the assay on B16 and in the assay with L1210 [1] was more than 100 µM throughout.
`COc1ccc2[nH]c(C(=O)NCC(O)c3ccccc3)cc2c1` (centres undefined): the half-maximal inhibitory concentration (IC50) in the assay with B16 was 84 µM; with L1210 [1] it was 25 µM.
